Results published in publication PMC7588194 (Virulence, 2020).

System: P. aeruginosa (ATCC 27853)
Assay: Radial diffusion assay
Assay type: cell-based
Settings: for concentration achieving similar inhibition zones / enhancement of antimicrobial activity among derivatives D1-D7: Figure 6C
Protocol: To identify library fractions and purified peptides with antibacterial activity a radial diffusion assay was carried out. Bacteria were cultured in liquid THY broth (Todd-Hewitt Broth [Oxoid, CM0189B] supplemented with 0.5% yeast extract [BD, Miami, USA, 212,750]) at 37°C overnight in a 5% CO2 atmosphere, pelleted by centrifugation and washed in 10 mM sodium phosphate buffer. Following resuspension in 10 mM sodium phosphate buffer optical density was determined spectrophotometrically at 600 nm (OD600nm). Bacterial density was adjusted to seed 2 × 10^7 bacteria into a petri dish in 1% agarose dissolved in 10 mM sodium phosphate buffer. Plates were allowed to cool for 30 min at 4°C before several 2–3 mm holes were placed into the 1% agarose. Freeze-dried fractions of the BAL library pool were reconstituted in 200 µl of ddH2O with 10 µl being used for the initial screen. Alternatively, peptides adjusted to the desired concentration in 10 µl of ddH2O were filled into the agar-holes. Following incubation at 37°C in ambient air for 3 h plates were overlaid with 10 ml of a 1% agarose solution containing 3% tryptic soy broth (TSB) dissolved in 10 mM phosphate buffer. Inhibition zones in cm were determined following 16–18 h incubation time at 37°C in a 5% CO2 atmosphere.

| Sequence | times the amount needed compared to D7 at 25 µg/ml for similar inhibition zones | concentration achieving similar inhibition zones | enhancement of antimicrobial activity among derivatives D1-D7 |
| --- | --- | --- | --- |
| RVNHVTLSQPKIVKW [B2M 101-115] | 2–4 | 50 to 100 µg/mL | – |
| GVNHVILSQIKIVKW [B2M D6] | – | – | most convincing enhancement of antimicrobial activity |
| GVNHVKLSQIKIVKW [B2M D7] | – | 25 µg/mL | most convincing enhancement of antimicrobial activity |
